The values below come from patent publication US20160220573A1, “COMBINATION THERAPIES FOR TREATING CANCERS” (Gilead Sciences, Inc., priority 2015, published 2016).

For the assay, the system named is CLL cells. The experiment in a line: Human CLL Apoptosis Assay. It counts as cell-based. The following applies: without HS-5 co-culture. Here is the method:
Peripheral blood mononuclear cells (PBMCs) were isolated from primary chronic lymphocytic leukemia (CLL) patients and cultured for 3-5 hours in Lymphocyte Growth Medium (LGM, RPMI 1640, 1 mM Sodium Pyruvate, 10 mM HEPES, pH 7.4, 100 U/mL Penicillin/100 μg/mL Streptomycin, 55 μM β-Mercaptoethanl, 2 mM GlutaMAX, and 10% FBS) at 37° C. with 5% CO2. Cells were then centrifuged at room temperature for 10 minutes and resuspended in an appropriate volume of LGM for plating (maximum cell density=3.12×10^6/ml). Final assay wells were set up in U-bottom 96-well tissue culture plates with HS-5 co-culture (plates were coated with 3×10^4 HS-5 cells in 100 μl overnight at 37° C. prior to the assay) or no co-culture.
Cell suspensions (80 μL, 2.5×10^5-9.4×10^4) were added to the plate and incubated for 1 hour prior to stimulation with αIgM/αIgG (7.8 μg/well) and αCD40 (4 μg/well). Cells were incubated with compounds for about 66 hours at 37° C. After incubation, the cells were transferred to deeper plates and washed once with 500 μL of 1×PBS^+/+. Cells were resuspended in Invitrogen's aqua Live/Dead reagent according to manufacturer's directions and incubated 30 minutes on ice. Aqua Live/Dead was quenched with an equal volume of PBS^+/+ with 4% FBS (FACS buffer). Cells were centrifuged and labeled with αCD5^−PE, αCD19-BV421 and AnnexinV-APC in a total volume of […] and incubated 30 minutes on ice. After labeling, cells were rinsed twice in FACS buffer and then fixed with BD Fixation buffer for 30 minutes on ice. Cells were rinsed twice with FACS buffer and analyzed.
For the apoptosis analysis, flow cytometric sampling of 5000-20,000 total events were collected on a BD FACS Canto II instrument using a high throughput screen (HTS) autosampler for analysis of apoptosis. CD5^+/CD19^+ cells were identified and subsequently gated for AnnexinV^+/LiveDead and AnnexinV^+/LiveDead^+ populations.
Flow cytometric data were extracted to a flow cytometry standard (fcs) file. Average percentages of AnnexinV^+ cells were determined for the positive control and negative wells (no compound). The percentage of AnnexinV^+ cells represented the percentage or levels of apoptosis. Similar results were obtained for CLL cells with HS-5 co-culture.

`c1cn2cc(-c3ccc4cn[nH]c4c3)nc(Nc3ccc(N4CCOCC4)cc3)c2n1` [Compound A1, 6-(1H-indazol-6-yl)-N-(4-morpholinophenyl)imidazo[1,2-a]pyrazin-8-amine]: the “Percentage of the AnnexinV^+ cells from CLL patients” value (“Percentage of the AnnexinV^+ cells” for short) by setting is: (Sample 1, 0 nM Compound B1, 30 nM Compound A1) 12%; (Sample 1, 0 nM Compound B1, 100 nM Compound A1) 12%; (Sample 1, 0 nM Compound B1, 300 nM Compound A1) 16%; (Sample 2, 0 nM Compound B1, 30 nM Compound A1) 9%; (Sample 2, 0 nM Compound B1, 100 nM Compound A1) 12%; (Sample 2, 0 nM Compound B1, 300 nM Compound A1) 20%. Further, the “Percentage of the AnnexinV^+ cells” value is reported as 13% (Sample 3, 0 nM Compound B1, 30 nM Compound A1); 15% (Sample 3, 0 nM Compound B1, 100 nM Compound A1); 18% (Sample 3, 0 nM Compound B1, 300 nM Compound A1).
As to `CC1(C)CCC(CN2CCN(c3ccc(C(=O)NS(=O)(=O)c4ccc(NCC5CCOCC5)c([N+](=O)[O-])c4)c(Oc4cnc5[nH]ccc5c4)c3)CC2)=C(c2ccc(Cl)cc2)C1` [Compound B1], the “Percentage of the AnnexinV^+ cells” value turned out to be 13% (Sample 1, 0.8 nM Compound B1, 0 nM Compound A1); 15% (Sample 1, 1.6 nM Compound B1, 0 nM Compound A1); 15% (Sample 1, 3.1 nM Compound B1, 0 nM Compound A1); 16% (Sample 1, 6.3 nM Compound B1, 0 nM Compound A1); 19% (Sample 1, 12.5 nM Compound B1, 0 nM Compound A1); 24% (Sample 1, 25 nM Compound B1, 0 nM Compound A1). Moreover, the “Percentage of the AnnexinV^+ cells” value by setting is: (Sample 1, 50 nM Compound B1, 0 nM Compound A1) 31%; (Sample 1, 100 nM Compound B1, 0 nM Compound A1) 36%; (Sample 1, 200 nM Compound B1, 0 nM Compound A1) 46%; (Sample 2, 0.8 nM Compound B1, 0 nM Compound A1) 10%; (Sample 2, 1.6 nM Compound B1, 0 nM Compound A1) 18%; (Sample 2, 3.1 nM Compound B1, 0 nM Compound A1) 35%. Also, the “Percentage of the AnnexinV^+ cells” value reads like this: (Sample 2, 6.3 nM Compound B1, 0 nM Compound A1) 55%; (Sample 2, 12.5 nM Compound B1, 0 nM Compound A1) 76%; (Sample 2, 25 nM Compound B1, 0 nM Compound A1) 89%; (Sample 2, 50 nM Compound B1, 0 nM Compound A1) 93%; (Sample 2, 100 nM Compound B1, 0 nM Compound A1) 95%; (Sample 2, 200 nM Compound B1, 0 nM Compound A1) 97%. Further, the “Percentage of the AnnexinV^+ cells” value worked out at 16% (Sample 3, 0.8 nM Compound B1, 0 nM Compound A1); 21% (Sample 3, 1.6 nM Compound B1, 0 nM Compound A1); 33% (Sample 3, 3.1 nM Compound B1, 0 nM Compound A1); 50% (Sample 3, 6.3 nM Compound B1, 0 nM Compound A1); 69% (Sample 3, 12.5 nM Compound B1, 0 nM Compound A1); 89% (Sample 3, 25 nM Compound B1, 0 nM Compound A1). The “Percentage of the AnnexinV^+ cells” value is, setting by setting: (Sample 3, 50 nM Compound B1, 0 nM Compound A1) 97%; (Sample 3, 100 nM Compound B1, 0 nM Compound A1) 99%; (Sample 3, 200 nM Compound B1, 0 nM Compound A1) 100%.
